Assay [1] has as its system M. smegmatis wild type mc2155. Briefly: microbe, parasite or virus in culture. The following applies: for MIC: Mycolicibacterium smegmatis. The class given is cell-based, Mycobacterium smegmatis.
Assay [2] deals with M. smegmatis TAM23 alr mutant. Briefly: MIC by microplate twofold dilution, alr mutant strain. It is filed as cell-based, Mycobacterium smegmatis. The following applies: for MIC: Mycolicibacterium smegmatis, TAM23ALRMUTANT
In assay [3] the test system is D-alanine ligase. The settings on record: David, 1969; Chacon, Ph.D. thesis; cited from earlier work.
The subject of assay [4] is M. smegmatis TAM23. Briefly: Bactericidal action of DCS in broth culture, alr mutant strain. The class given is cell-based, Mycobacterium smegmatis.
The test system of assay [5] is M. smegmatis mc2155. It is filed as cell-based, Mycobacterium smegmatis.
The target of assay [6] is M. smegmatis D-alanine racemase (AlrA) (Mycolicibacterium smegmatis, UniProt P94967). The settings on record: Caceres et al., 1997; listed as DCS; cited from earlier work.
M. smegmatis D-alanine racemase (AlrA), sequence (P94967 whole entry): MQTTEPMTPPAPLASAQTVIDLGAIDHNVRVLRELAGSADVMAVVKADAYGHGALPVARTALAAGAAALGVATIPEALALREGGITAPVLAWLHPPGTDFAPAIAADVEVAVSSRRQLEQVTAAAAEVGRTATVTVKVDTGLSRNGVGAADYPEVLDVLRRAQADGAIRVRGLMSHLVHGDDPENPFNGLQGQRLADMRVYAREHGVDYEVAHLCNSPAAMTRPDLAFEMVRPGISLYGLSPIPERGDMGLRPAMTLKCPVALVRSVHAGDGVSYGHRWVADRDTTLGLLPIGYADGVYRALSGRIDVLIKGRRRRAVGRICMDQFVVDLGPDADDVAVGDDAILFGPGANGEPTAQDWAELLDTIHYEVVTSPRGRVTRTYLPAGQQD
Setting [7] is: MC2155, 48 h, read-out: Minimal Inhibitory Concentration (MIC).
The mark [8] stands for this setting: 48 h, read-out: Minimal Inhibitory Concentration (MIC), TAM23 alr mutant, inoculum grown with 50 mM D-alanine, Middlebrook 7H9, 48 h.
[9] abbreviates: 48 h, read-out: Minimal Inhibitory Concentration (MIC), TAM23 alr mutant, inoculum grown without D-alanine, Middlebrook 7H9, 48 h.

Converted amounts (≈) assume the structure as drawn. Where two headings read alike, the source gives them in different places.

As for `NCC[C@H](O)C(=O)N[C@@H]1C[C@H](N)[C@@H](O[C@H]2O[C@H](CN)[C@@H](O)[C@H](O)[C@H]2O)[C@H](O)[C@H]1O[C@H]1O[C@H](CO)[C@@H](O)[C@H](N)[C@H]1O` [Amikacin, amikacin], the MIC in assay [1] (setting [7]), in assay [2] (setting [8]) and in assay [2] (setting [9]) was 1.56 µg/mL (≈ 2.66 µM) each time.

In the case of `CO[C@H]1/C=C/O[C@@]2(C)Oc3c(C)c(O)c4c(c3C2=O)C2=NC3(CCN(CC(C)C)CC3)NC2=C(NC(=O)/C(C)=C\C=C\[C@H](C)[C@H](O)[C@@H](C)[C@@H](O)[C@@H](C)[C@H](OC(C)=O)[C@@H]1C)C4=O` [Rifabutin, rifabutin], the MIC in assay [1] (setting [7]) worked out at 2 µg/mL (≈ 2.36 µM); in assay [2] (setting [8]), 1 µg/mL (≈ 1.18 µM); in assay [2] (setting [9]) it was 2 µg/mL (≈ 2.36 µM).

With `N[C@@H]1CON=C1O` [D-Cycloserine, D-cycloserine], the “Inhibition of D-alanine ligase activity” value in assay [3] was “inhibited”. The “Bactericidal effect (optical density and viable counts)” value is reported as “rapid death by lysis” in assay [4] (DCS at 50 times the MIC (128 μg/ml), broth without D-alanine, up to 72 h) and “rapid death by lysis” in assay [5]. Besides, the “Bactericidal drug concentration for mutant strain, fold lower than for wild-type strain” value in assay [4] (absolute drug concentrations) is given as 30 fold. Also, in assay [1], the “Minimal Inhibitory Concentration (MIC)” value is 75.0 µg/mL. For the same compound, the MIC in assay [1] (setting [7]) is 75 µg/mL (≈ 735 µM); in assay [1] (MC2155, read-out: MIC with D-alanine added directly into the MIC test cultures), 1200 µg/mL (≈ 11800 µM); in assay [2] (setting [8]), 10.2 µg/mL (≈ 99.9 µM); in assay [2] (setting [9]), 2.56 µg/mL (≈ 25.1 µM); in assay [2] (TAM23, independent of prior growth conditions of the inocula, read-out: MIC with D-alanine added directly into the MIC test cultures) it was 1200 µg/mL (≈ 11800 µM). Further, the “MIC for TAM23, times lower than the MIC for the wild-type strain” value in assay [2] (inoculum grown with D-alanine, washed) was “about 7.5 times”. For the same compound, in assay [2] (inoculum grown without D-alanine), the “Sensitivity of TAM23 relative to wild type (MIC ratio)” value is given as “about 30 fold”. Moreover, the “Inhibition of D-alanine racemase” value in assay [6] is “inhibited by DCS in a concentration-dependent manner”.

On to `CC[C@@H](CO)NCCN[C@@H](CC)CO` [Ethambutol, ethambutol], for which the MIC in assay [1] (setting [7]), in assay [2] (setting [8]) and in assay [2] (setting [9]) was 3.13 µg/mL (≈ 15.3 µM) in each case.

Source of the values: patent publication US6929799B2, “D-alanine racemase mutants of mycobacteria and uses therefore” (priority 2001, dated 2005).
